# Results reported in patent US20030083357A1, “Oxime derivatives for the treatment of dyslipidemia and hypercholesteremia” (priority 2001, published 2003).
# “Also recorded” adds a separate entry of the source.
# Legend:
# [1] = tested on: Sprague Dawley Rats Maintained on a High Cholesterol Atherogenic Diet; test: Oral treatment of hypercholesterolemia in Sprague Dawley rats on a high cholesterol atherogenic diet; type: in vivo, rat; details: 10 mg/kg once daily by oral gavage in sesame oil, five days, p≦0.01
# Description: Six week-old male Sprague Dawley rats (HSD, Harlan) were housed in a fixed 12-12- hr artificial light-dark cycle, and maintained on a high cholesterol, atherogenic diet ad libitum (#C13002, Research Diets, NJ).
# Animals were maintained on this diet throughout the course of the study.
# Following six days of maintenance on the high cholesterol diet, the animals were bled from the tail vein (100-200 μL of whole blood) and serum levels of total cholesterol were measured in duplicate (Infinity Cholesterol Kit; Sigma, St. Louis, Mo.). Based on these initial measures, animals were sorted into groups with approximately the same average serum cholesterol levels. Once sorted, the animals were housed three per cage and maintained on the high cholesterol diet ad libitum.
# Treatment groups(n=6/group):
# 1) Lean Sprague Dawley control (sesame oil)
# 2) High cholesterol fed control (sesame oil)
# 3) Compound 1 in sesame oil (10 mg/kg; once daily)
# Drug is prepared by mixing Compound 1 in sesame oil, and administered to animals in a volume of 3 ml/kg/dose. Drug is administered by oral gavage daily for five consecutive days.
# To monitor the effect of Compound 1, animals were bled from the tail vein five days after commencement of oral treatment. Serum cholesterols were measured in duplicate. […]
# [2] = tested on: Obese, Glucose Intolerant Zucker Fatty Rats (fa/fa); test: Glucose tolerance test in obese, glucose intolerant Zucker Fatty Rats (fa/fa) after oral treatment; type: in vivo, rat; details: 10 mg/kg once daily by oral gavage in sesame oil, 1 week; 2 g/kg oral glucose after 12 hr fast, serum glucose at 0.5, 1, 2 hours; p<0.05 and p<0.01; FIG. 3
# Description: Ten week-old male Zucker Fatty Rats (fa/fa; Harlan) were housed in a fixed 12-12- hr artificial light-dark cycle, and maintained on a standard diet provided ad libitum. Animals were allowed two days to acclimate in this experimental environment prior to the initiation of the study.
# Prior to initiation of treatment, the animals were bled from the tail vein (100-200 μL of whole blood) and serum levels of triglycerides were measured in duplicate (Infinity kits; Sigma, St. Louis, Mo.). Based on these initial measures, animals were sorted into groups with approximately the same average serum triglyceride levels. Once sorted, the animals were housed one per cage and provided standard rodent diet ad libitum.
# Treatment groups (n=5/group):
# 2) Compound 1 in sesame oil (10 mg/kg once daily)
# Drug is prepared by mixing Compound 1 in sesame oil, and administered to animals in a volume of 3 ml/kg/dose. Drug is administered by oral gavage once daily.
# To monitor the effect of Compound 1, animals were tested in a glucose tolerance test. One day prior to the tolerance test, the animals were fasted overnight (12 hr fast). Animals were then bled at 0 hours to establish baseline glucose levels. […] The animals were then bled 0.5, 1, and 2 hours later and serum glucose levels were measured in duplicate. […]
smiles,measurement,setting,value
"COc1ccc(/C=N/O)cc1-c1cc2c(cc1C)C(C)(C)CCC2(C)C [Compound 1, 3-(3,5,5,8,8-Pentamethyl-5,6,7,8-tetrahydro-2-naphthyl)-4-methoxybenzaldehyde oxime]",total serum cholesterol,"[1]; compared to control animals on the same atherogenic diet, FIG. 1",significantly reduced
same,LDL cholesterol levels,"[1]; compared to controls, FIG. 2",reduced
same,glucose clearance rate (glucose tolerance test),[2],improvement of glucose tolerance; also recorded: significant increase
same,melting point,,152 °C
